# In publication PMC9729826, “Hypoaminoacidemia underpins glucagon-mediated energy expenditure and weight loss” (Cell Reports Medicine, 2022):
# Starred links: 1 amine or outer side, 2 acyl side, 3 side chain; linkers in the order of their positions; H or OH if unused. Non-standard residues stand in square brackets, D forms with d. Residues, ends and D or L forms follow the SMILES beside them. Groups on a side chain read outwards from the residue. *: point of attachment. C18 diacid = O=C(O)CCCCCCCCCCCCCCCCC(=O)*; γGlu = O=C(O)[C@H](CCC(=O)[*:2])N[*:1]; Aib = CC(C)(N)C(=O)O
# Experiments:
# C57BL/6 mice = test: Single-dose G108 EE and plasma amino acid study in metabolic cages; assay type: in vivo, mouse; conditions: for plasma total amino acids after a single injection / energy expenditure after a single injection: mice on SP diet
# Protocol: Lean 10-week-old C57BL/6 mice (N = 20) were provided ad libitum a 60 kcal% high fat diet (diet D12492, Table S2) for 10 days. They were then switched to either a standard protein high fat diet (D08091803) or a high protein high fat diet (D08091801) (N = 10/group) for 1 week prior to commencing the study. All mice were then placed into metabolic cages, individually housed, and allowed to acclimatise for 24 h. On day 2, baseline metabolic readings were obtained prior to single dose administration of 7.5 nmol/kg G108 on day 3 at 9 am. Metabolic readings were subsequently obtained over the following 48 h prior to single dose administration of 20 nmol/kg G108 on day 5. On day 8, all mice were removed from the metabolic cages and returned to their home cages. A parallel study was then carried out whereby venous blood samples were collected at baseline and daily following single dosing with either 7.5 nmol/kg or 20 nmol/kg G018. Blood samples were transferred on ice immediately for centrifugation as previously described. Samples were stored at −80°C prior to measurement of plasma total amino acids.
# (§1) To measure energy expenditure, DIO mice were placed into a Comprehensive Laboratory Animal Monitoring System (CLAMS, Columbus instruments, Columbus, US). Measurement of oxygen consumption and carbon dioxide production was taken at 20 min intervals. Food intake was also measured electronically without the need to remove food. Each cohort of mice were placed into the CLAMS system with daily weighing of body weight prior to administration of the allocated treatment at 9 am. Following administration of treatment, mice were placed back into the metabolic cages with ad libitum access to their allocated diet. For studies with the low amino acid (LAA) diet in metabolic cages, animals were not removed from the metabolic cages until the end of the experiment and had ad libitum access to either standard protein or low amino acid diets. Feed efficiency was calculated as mg body weight change per kJ consumed.
# Plasma total amino acids were measured using fluorometric-based ELISA kits as described (MAK002, Sigma-Aldrich, Ab65347, Abcam). Plasma FGF21 was measured using a fluorescent based ELISA kit (ab229382, Abcam). Plasma triglyceride, cholesterol and leptin were measured using ELISA kits (ab65336, ab65390, ab199082, Abcam). Individual amino acids were measured using Gas Chromatography/Mass Spectrometry (WellChild laboratory, Evelina Children’s Hospital, St Thomas’s Hospital, London).
# [1] = test system: diet-induced obese (DIO) C57BL/6 mice; test: Chronic low-dose (7.5 nmol/kg) G108 study in DIO mice on SP or HP diet; assay type: in vivo, mouse; conditions: 7.5 nmol/kg s.c. daily
# Text: Lean 10-week-old C57BL/6 mice (N = 27) were provided ad libitum a 60 kcal% high fat diet (diet D12492, Table S2) for 12 weeks prior to the start of the study. The cohort of mice were individually housed and divided into three treatment groups, based on treatment and diet allocation: Vehicle/High fat, Standard protein diet (SP) (N = 9), 7.5 nmol/kg G108/SP diet (N = 9) and 7.5 nmol/kg G108/High fat, High protein diet (HP) (N = 9). The high fat, standard protein diet (SP diet) (D08091803) and high fat, high protein diet (HP diet) (D08091801) are detailed in Table S2. All mice had ad libitum access to water and their allocated diets. Mice were subcutaneously administered with their respective treatments at 9 am each day for 27 days. Food intake, water intake and body weight were measured using the same weighing scale each morning prior to vehicle or G108 administration. EchoMRI was carried out at baseline, day 14 and day 25. Tail venesection was carried out on day 13 of the study immediately pre-treatment. 40–50 μL of blood was collected and immediately transferred on ice, centrifuged at 2800 × g for 10 min prior to analysis for total and individual plasma amino acids. A glucose tolerance test was carried out on day 15 of the study following a 5 h fast as described below. Forelimb grip strength testing was performed at baseline and day 25 of the study. After 20 days, all groups were placed into metabolic cages, single housed for 72 h, as described below. After 72 h, all groups were removed from the metabolic cages and returned to their home cages. Following a 4 h fast on day 27 all mice were culled, with the following tissues dissected and snap frozen in liquid nitrogen prior to storage at −80°C: gastrocnemius, quadriceps, brown adipose tissue (BAT) and liver. Terminal blood was also collected and transferred on ice immediately for centrifugation as previously described and storage at −80°C.
# Food intake was measured daily using a dedicated weighing scale and topped up accordingly. Body weight was recorded at 9 am daily or every 48 h using the same weighing scale. Body composition was measured using an EchoMRI analyser at various timepoints during chronic studies. Body composition measurements were taken on the same time of day to reduce intra-animal variability. Animals were placed in a transparent cylindrical Perspex tube and both ends secured with Perspex clips. The tubes containing the animal was then carefully placed into the MRI machine (EchoMRI −100H analyser, EchoMRI). Each scan lasted approximately 90 s where lean mass and fat mass were recorded in grams. Following the scan, the mice were removed from the Perspex tube and returned to their respective cages.
# For glucose tolerance tests, following a 5 h fast and administration of peptide or vehicle treatment, mice were administered with glucose by intraperitoneal injection at a dose of 2 g/kg body weight. Tail vein blood samples were taken at baseline, 20, 40, 60 and 90 min and glucose measured (mmol/L) using a handheld GlucoRx monitor (GlucoRx, UK).
# as §1, with “consumed. […]” for “consumed.”
smiles,measurement,setting,value
CC[C@H](C)[C@H](NC(=O)[C@H](Cc1ccccc1)NC(=O)[C@H](CCC(=O)O)NC(=O)[C@H](CCC(N)=O)NC(=O)[C@H](C)NC(=O)[C@H](CCCNC(=N)N)NC(=O)[C@H](CCCCN)NC(=O)[C@H](C)NC(=O)[C@H](CC(=O)O)NC(=O)[C@H](CC(C)C)NC(=O)[C@H](Cc1ccc(O)cc1)NC(=O)[C@H](CCCNC(=N)N)NC(=O)[C@H](CO)NC(=O)[C@H](Cc1ccc(O)cc1)NC(=O)[C@H](CC(=O)O)NC(=O)[C@H](CO)NC(=O)[C@@H](NC(=O)[C@H](Cc1ccccc1)NC(=O)[C@@H](NC(=O)CNC(=O)[C@H](Cc1c[nH]cn1)NC(=O)C(C)(C)NC(=O)[C@@H](N)Cc1c[nH]cn1)[C@@H](C)O)[C@@H](C)O)C(=O)N[C@@H](CCC(=O)O)C(=O)N[C@@H](Cc1c[nH]c2ccccc12)C(=O)N[C@@H](CC(C)C)C(=O)N[C@@H](CC(C)C)C(=O)N[C@@H](CCC(N)=O)C(=O)N[C@@H](CO)C(=O)N[C@@H](Cc1c[nH]cn1)C(=O)N[C@@H](Cc1c[nH]cn1)C(=O)N[C@@H](CCC(N)=O)C(=O)N[C@@H](Cc1c[nH]cn1)C(=O)N[C@@H](Cc1c[nH]cn1)C(=O)N1CCC[C@H]1C(=O)N[C@@H](CO)C(=O)N1CCC[C@H]1C(=O)N1CCC[C@H]1C(=O)N1CCC[C@H]1C(=O)N[C@@H](CCCCNC(=O)[C@H](CC(N)=O)NC(=O)CC[C@H](NC(=O)CCCCCCCCCCCCCCCCC(=O)O)C(=O)O)C(N)=O [Peptide G108] (H-H[Aib]HGTFTSDYSRYLDAKRAQEFIEWLLQSHHQHHPSPPPK([Asn-γGlu-C18 diacid])-NH2; N-terminus and C-terminus assumed),plasma total amino acids after a single injection,"C57BL/6 mice; single 7.5 nmol/kg dose, n = 10/group",transient reduction in plasma amino acids
same,energy expenditure after a single injection,"C57BL/6 mice; single 7.5 nmol/kg dose, up to 48 h, n = 10/group",trend toward increased EE
same,plasma total amino acids after a single injection,"C57BL/6 mice; single 20 nmol/kg dose, n = 9-10/group",sustained reduction in plasma amino acids
same,energy expenditure after a single injection,"C57BL/6 mice; single 20 nmol/kg dose, up to 72 h, n = 9-10/group",significantly increased EE response
same,hypoaminoacidemia and EE in mice fed the HP diet,"C57BL/6 mice; single 7.5 and 20 nmol/kg doses, HP diet",protected against G108-stimulated hypoaminoacidemia and EE at both doses
same,food intake,[1]; 27 days,did not affect food intake
same,body weight on high protein (HP) diet,"[1]; 27 days, HP diet (40 kcal% protein) versus SP diet, n = 9/group",sufficient to prevent chronic G108-mediated weight loss
same,lean mass and grip strength on HP diet,"[1]; HP diet, less pronounced over the course of the study",blunted the reduction in lean mass and grip strength
same,energy expenditure (EE) in metabolic cages,"[1]; after 20 days, CLAMS, SP and HP diets, n = 7-8/group","increased EE on a standard protein (SP), but not HP, diet"
same,individual plasma amino acids,"[1]; day 13, SP diet, GC/MS, n = 5/group",reduced the plasma abundance of most amino acids
same,plasma total cholesterol,"[1]; day 14, both SP and HP diets, n = 9/group",improvement in plasma cholesterol
same,plasma total triglyceride,"[1]; day 14, n = 9/group",no change in plasma triglycerides
same,"glucose tolerance (intraperitoneal glucose tolerance test, 2 g/kg)","[1]; day 15, SP and HP diets, n = 9/group",remarkably efficient at improving glucose tolerance
same,fat mass on standard protein (SP) diet,"[1]; days 14 and 25, SP diet, prevented by HP diet",marked reduction in fat mass
same,induction of hepatic amino acid catabolic pathways on HP diet,"[1]; liver qPCR, n = 5-6/group",not prevented by the HP diet
same,hepatic lipid content (oil red O staining),"[1]; terminal (day 27), both SP and HP diets",highly effective at clearing liver fat
